# According to patent US20210341371A1, “CELL SCANNING TECHNOLOGIES AND METHODS OF USE THEREOF” (priority 2018, published 2021):
# Like-named read-outs stand apart in the source and are kept apart here.
# Legend:
# [1] = tested on: RBC membrane permeability; assay: Cell scan of blood samples from patients/subjects (RBC membrane permeability parameters), including effect of medication taken; assay type: in vivo, human; conditions: for effect of medication on the output of the cell scanning technologies: medication the subject has taken or is taking
# From the text: The present disclosure encompasses the recognition that one or more medications that the subject has taken or is taking may affect the output of the cell scanning technologies described herein. The effect of a particular medication on the output of the cell scanning technologies may vary by medication, e.g., vary in magnitude and/or in length of effect, and in some cases, a particular medication may have no effect at all. […] Accordingly, in some embodiments, provided methods further comprise determining whether or not the subject has taken or is taking a particular medication. In some embodiments, if the subject has taken a medication known to have a particular effect on the output of the cell scanning technologies, then a determined RBC membrane permeability parameter should be compared to a suitable reference control parameter (e.g., a reference control parameter determined in the presence or absence of the particular medication). In some embodiments, if the subject has taken a medication known to have a particular effect on the output of the cell scanning technologies, then further diagnostic assessment is warranted.
# (§1) A sample of whole blood from a healthy volunteer was drawn into ACD anticoagulant. The unwashed sample was divided into aliquots and was analyzed using the Prior Shine Technology and/or the Provided Cell Scanning Technologies. The following outputs were obtained from the sample:
# “Pk0” coincided with the minimum absolute osmotic pressure (e.g., most hypotonic pressure) to which a cell can be subjected without loss of integrity. Pk0 can be identified by determining the right-most extent of the intact cell population in the cell-by-cell graph, i.e., the point of osmolality immediately preceding the point at which the cells ruptured. In FIG. 1a, this minimum pressure is the “peak” 106. As the osmolality of the surrounding solution was reduced, the red blood cell ruptures and forms a ghost cell, which releases its contents into the surrounding medium.
# Using the technologies described herein, a cell-by-cell analysis was converted into a plot of percent change of cell volume vs. osmolality (“Cell Scan Plot”) by converting the individual peak voltage into a cell volume, then calculating a mean volume for each 100 cells, and plotting the means to generate the Cell Scan Plot. The percentage change of cell volume at each osmolality is calculated and compared to the mean cell volume of an isotonic cell (e.g., FIG. 1b). On such a plot, Pk0 (see 101) is the osmotic pressure at which the net water flow is zero (i.e., when a cell achieved its maximum volume, i.e., when it is a perfect sphere). As described herein, in some embodiments, Pk0 can be used as an indicator of an individual's health status.
# The Fluid Flux Curve (FFC) was determined by taking the first order derivative (with respect to osmolality) of Cell Scan Plot (FIG. 1c). In an FFC, Pk0 occurred at the zero crossing (101), which was where the slope of the Cell Scan Plot changes from positive to negative. A positive value on the FFC represented a net flow of fluid into the cell, while negative rates represented a net flow of fluid out of the cell. In the FFC, the positive peak 102 and negative peak 103 corresponded to the maximum and minimum, respectively, on the FFC. As used herein, “Pymax” is the magnitude of fluid flux at the maximum, and “Pymin” is the magnitude of fluid flux at the minimum.
# Table 7 is organized by indication and reports the mean values for various parameters tested.
# A person was tested using cell scanning technologies described herein at a check-up 2 months after being diagnosed with grand mal epilepsy. The results were within normal limits (as they were on a prior visit), except for the Pk0 which had shifted approx. 10 mOsm/kg to 136 mOsm/kg. Such a change may be attributed to their prescribed medication, phenytoin.
# [2] = tested on: RBC membrane permeability; assay type: cell-based, human
# From the text: The present disclosure also provides technologies for assessing (e.g., identifying and/or characterizing) agents and/or other compositions that modulate RBC membrane permeability (collectively, “RBC Permeability Modulating Agents”). Provided technologies may be useful for identifying RBC Permeability Modulating Agents. In some instances, a RBC Permeability Modulating Agent is expected to effect the health state of a subject exposed it (e.g., a beneficial or adverse effect). For example, provided methods allow for the evaluation of agents and/or compositions intended for use in humans (e.g., a drug candidate or prosthetic material).
# In some embodiments, a sample is analyzed within a particular time period after being subjected to an agent or composition (e.g., within about 5 minutes, about 10 minutes, about 30 minutes, about 1 hour, about 2 hours, or about 5 hours). In some embodiments, a method further comprises evaluating dose response of an agent or composition (e.g., by subjecting each of a plurality of samples to varying concentrations of agent or composition).
# as §1
# “Pk0” coincided with the minimum absolute osmotic pressure (e.g., most hypotonic pressure) to which a cell can be subjected without loss of integrity. Pk0 can be identified by determining the right-most extent of the intact cell population in the cell-by-cell graph, i.e., the point of osmolality immediately preceding the point at which the cells ruptured. In FIG. 1a, this minimum pressure is the “peak” 106. […]
# Using the technologies described herein, a cell-by-cell analysis was converted into a plot of percent change of cell volume vs. osmolality (“Cell Scan Plot”) by converting the individual peak voltage into a cell volume, then calculating a mean volume for each 100 cells, and plotting the means to generate the Cell Scan Plot. The percentage change of cell volume at each osmolality is calculated and compared to the mean cell volume of an isotonic cell (e.g., FIG. 1b). […]
# The Fluid Flux Curve (FFC) was determined by taking the first order derivative (with respect to osmolality) of Cell Scan Plot (FIG. 1c). […]
# Using the technologies provided herein, agents were tested for potential adverse in vivo effects prior to use in humans and/or animals. For example, a blood sample from a healthy volunteer was contacted with amphotericin B (0.5 μg/mL) and was analyzed using the provided cell scanning technologies. […]
smiles,measurement,setting,value
CCC1(c2ccccc2)C(=O)NC(=O)NC1=O [phenobarbitone],effect of medication on the output of the cell scanning technologies,[1],have an effect on the output
OCCS [beta-mercaptoethanol],effect of HgCl2 on RBC membrane permeability after addition of chelator,[2],the effect was reversed and RBC membrane permeability was restored
CC(C)(S)[C@@H](N)C(=O)O [penicillamine],effect of medication on the output of the cell scanning technologies,[1],have an effect on the output
[Cl][Hg][Cl] [HgCl2],flow of water across the membrane,[2]; unwashed whole blood from a healthy volunteer treated with 65 μM HgCl2,no flow of water across the membrane was detected
same,RBC membrane permeability,"[2]; unwashed whole blood from a healthy volunteer treated with 65 μM HgCl2, monitored over time",essentially eliminated
O=C1NC(=O)C(c2ccccc2)(c2ccccc2)N1 [phenytoin],shift of Pk0 versus prior visit,"[1]; Patient X on prescribed phenytoin, change may be attributed to the medication",approx. 10 mOsm/kg
same,Pk0,"[1]; Patient X, person with grand mal epilepsy, 2 months after diagnosis, on prescribed phenytoin, change may be attributed to the medication",136 mOsm/kg
same,effect of medication on the output of the cell scanning technologies,[1],have an effect on the output
CC(=O)CC(c1ccccc1)c1c(O)c2ccccc2oc1=O (stereo not drawn) [warfarin],P0 (TOTAL),"[1]; mean value for patients with pulmonary embolus on warfarin, all patients (N=4)",149.4
same,P0 (died),"[1]; mean value for patients with pulmonary embolus on warfarin, subset who died (N=1)",157
C[C@@H]1[C@H](O)[C@@H](C)/C=C/C=C/C=C/C=C/C=C/C=C/C=C/[C@H](O[C@@H]2O[C@H](C)[C@@H](O)[C@H](N)[C@@H]2O)C[C@@H]2O[C@](O)(C[C@@H](O)C[C@@H](O)[C@H](O)CC[C@@H](O)C[C@@H](O)CC(=O)O[C@H]1C)C[C@H](O)[C@H]2C(=O)O [amphotericin B],effect of medication on the output of the cell scanning technologies,[1],have an effect on the output
same,Pk0,"[2]; blood sample from a healthy volunteer contacted with amphotericin B 0.5 μg/mL, normal Pk0 approx. 142 mOsm/kg",85 mOsm/kg
